The target in experiment [1] is T1, Fatty acid synthase (Homo sapiens, UniProt P49327). Nature of the experiment: inhibition of human FAS-TE enzyme activity – biochemical, endpoint fluorescence intensity, uHTS hits, dose response (AID 624327).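 Also: fluorescence from hydrolysis of an O-methyl fluorescein acyl ester substrate by the enzyme.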 It counts as functional.
The target of experiment [2] is T1, Fatty acid synthase. Nature of the experiment: inhibition of human FAS-TE enzyme activity – biochemical, kinetic fluorescence intensity, dose response (AID 624326).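 Also: rate of fluorescence rise from hydrolysis of a fluorogenic O-methyl fluorescein ester substrate.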 It counts as functional.
Experiment [3] is described as follows: intracellular Trypanosoma cruzi inhibitors in host cells – cell-based, plate reader, cherry-pick samples, set 3, dose response (AID 651818).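 Also: compounds incubated with infected cells for about four days.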 It counts as functional.
The target in experiment [4] is Glyceraldehyde-3-phosphate dehydrogenase (Homo sapiens, UniProt P04406).
Glyceraldehyde-3-phosphate dehydrogenase, sequence (P04406 whole entry): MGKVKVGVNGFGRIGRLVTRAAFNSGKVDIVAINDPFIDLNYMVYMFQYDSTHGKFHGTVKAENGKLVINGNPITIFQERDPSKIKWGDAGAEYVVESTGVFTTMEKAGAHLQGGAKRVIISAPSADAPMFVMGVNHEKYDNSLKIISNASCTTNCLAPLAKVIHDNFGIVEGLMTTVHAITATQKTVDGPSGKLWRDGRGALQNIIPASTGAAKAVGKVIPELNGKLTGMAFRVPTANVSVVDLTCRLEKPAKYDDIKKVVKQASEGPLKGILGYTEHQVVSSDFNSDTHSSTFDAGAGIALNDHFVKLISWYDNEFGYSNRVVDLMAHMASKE
Experiment [5] can be described thus: viability loss in HeLa cells – cytotoxicity control for MgcRacGAP inhibitor project, dose response (AID 624300). It counts as functional.
Experiment [6] addresses T2, Rac GTPase-activating protein 1 (Homo sapiens, UniProt Q9H0H5).
T2 sequence (Q9H0H5 whole entry): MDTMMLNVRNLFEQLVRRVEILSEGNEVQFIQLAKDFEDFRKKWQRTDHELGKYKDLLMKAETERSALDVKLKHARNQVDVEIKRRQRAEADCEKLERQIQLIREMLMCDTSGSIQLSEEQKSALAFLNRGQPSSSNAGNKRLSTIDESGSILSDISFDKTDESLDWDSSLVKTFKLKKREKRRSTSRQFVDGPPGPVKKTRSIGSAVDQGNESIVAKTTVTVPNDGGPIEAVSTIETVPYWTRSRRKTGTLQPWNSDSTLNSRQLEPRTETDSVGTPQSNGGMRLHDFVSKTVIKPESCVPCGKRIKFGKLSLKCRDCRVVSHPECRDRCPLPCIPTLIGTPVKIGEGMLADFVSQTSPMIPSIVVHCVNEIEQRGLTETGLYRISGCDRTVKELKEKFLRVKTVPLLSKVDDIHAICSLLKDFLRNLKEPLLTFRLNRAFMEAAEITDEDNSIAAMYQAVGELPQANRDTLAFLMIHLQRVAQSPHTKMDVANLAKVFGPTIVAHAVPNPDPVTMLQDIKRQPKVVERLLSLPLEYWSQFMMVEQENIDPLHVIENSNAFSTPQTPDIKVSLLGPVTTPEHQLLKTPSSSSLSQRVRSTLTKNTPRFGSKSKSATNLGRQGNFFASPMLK
Put plainly: blockers of MgcRacGAP-driven Rac1 GTP hydrolysis – biochemical, ADP Hunter fluorescence, primary and confirmatory, confirmation (AID 624330). It counts as functional.

A short description of experiment [7]: growth inhibition of yeast DHODH-expressing 3D7 parasites – SYBR Green, dry powder samples, dose response (AID 1159570).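 Also: parasite growth measured after 72 hours of compound exposure.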 It counts as functional, cell-based.
Experiment [8] is described as follows: P. falciparum Dd2 growth inhibitors, dose response, SYBR Green, cherry-picked samples (AID 1159567). It counts as functional, cell-based.
Experiment [9] is described as follows: Dd2 malaria parasite growth inhibition potency – SYBR Green, dry powder samples, dose response (AID 1159566).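 Also: potency for growth inhibition with lower SYBR green DNA signal.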 It counts as functional, cell-based.
The nature of experiment [10]: growth inhibition of PfATP4-mutant resistant parasites – NITD609-resistant line, SYBR Green, dry powder, dose response (AID 1159571).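 Also: parasites synchronized at ring stage by sorbitol before testing.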 It counts as functional, cell-based.
Experiment [11] has as its system Vero. Nature of the experiment: cells. It counts as functional, cell-based. The note with it: Chlorocebus sabaeus.
For experiment [12], the system named is Vero. Put plainly: cells. It counts as functional. The conditions noted are these: Chlorocebus sabaeus.
Experiment [13] addresses T3, Replicative DNA helicase DnaB (Mycobacterium tuberculosis, UniProt P9WMR3).
T3 sequence (P9WMR3 whole entry): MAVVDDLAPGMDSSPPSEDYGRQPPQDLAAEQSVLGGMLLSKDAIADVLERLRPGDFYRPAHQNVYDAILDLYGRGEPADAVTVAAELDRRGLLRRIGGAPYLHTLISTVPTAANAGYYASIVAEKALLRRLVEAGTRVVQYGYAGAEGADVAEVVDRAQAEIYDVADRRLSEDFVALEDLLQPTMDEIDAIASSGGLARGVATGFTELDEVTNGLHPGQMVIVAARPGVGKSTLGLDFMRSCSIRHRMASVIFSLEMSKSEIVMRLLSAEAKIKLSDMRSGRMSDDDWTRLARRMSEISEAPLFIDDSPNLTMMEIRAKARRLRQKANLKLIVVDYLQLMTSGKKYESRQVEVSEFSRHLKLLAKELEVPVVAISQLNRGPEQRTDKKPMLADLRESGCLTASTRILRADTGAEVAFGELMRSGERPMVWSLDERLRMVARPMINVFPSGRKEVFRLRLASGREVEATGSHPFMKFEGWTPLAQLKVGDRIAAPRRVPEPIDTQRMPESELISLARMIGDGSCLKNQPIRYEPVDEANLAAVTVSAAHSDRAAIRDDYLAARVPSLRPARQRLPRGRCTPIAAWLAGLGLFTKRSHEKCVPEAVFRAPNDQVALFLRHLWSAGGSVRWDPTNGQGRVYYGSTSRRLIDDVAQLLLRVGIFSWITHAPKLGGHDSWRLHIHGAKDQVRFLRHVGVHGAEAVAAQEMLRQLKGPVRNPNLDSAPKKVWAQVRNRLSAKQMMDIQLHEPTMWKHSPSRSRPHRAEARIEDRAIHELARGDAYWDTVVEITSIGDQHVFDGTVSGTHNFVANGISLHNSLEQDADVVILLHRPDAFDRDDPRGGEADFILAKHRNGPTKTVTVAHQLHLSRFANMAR
Put plainly: DnaB intein splicing inhibitors, dose response, biochemical, cell-free fluorescence (AID 449749). It counts as functional.

A further experiment addresses T4, Protein RecA (Mycobacterium tuberculosis, UniProt P9WHJ3).
T4 sequence (P9WHJ3 whole entry): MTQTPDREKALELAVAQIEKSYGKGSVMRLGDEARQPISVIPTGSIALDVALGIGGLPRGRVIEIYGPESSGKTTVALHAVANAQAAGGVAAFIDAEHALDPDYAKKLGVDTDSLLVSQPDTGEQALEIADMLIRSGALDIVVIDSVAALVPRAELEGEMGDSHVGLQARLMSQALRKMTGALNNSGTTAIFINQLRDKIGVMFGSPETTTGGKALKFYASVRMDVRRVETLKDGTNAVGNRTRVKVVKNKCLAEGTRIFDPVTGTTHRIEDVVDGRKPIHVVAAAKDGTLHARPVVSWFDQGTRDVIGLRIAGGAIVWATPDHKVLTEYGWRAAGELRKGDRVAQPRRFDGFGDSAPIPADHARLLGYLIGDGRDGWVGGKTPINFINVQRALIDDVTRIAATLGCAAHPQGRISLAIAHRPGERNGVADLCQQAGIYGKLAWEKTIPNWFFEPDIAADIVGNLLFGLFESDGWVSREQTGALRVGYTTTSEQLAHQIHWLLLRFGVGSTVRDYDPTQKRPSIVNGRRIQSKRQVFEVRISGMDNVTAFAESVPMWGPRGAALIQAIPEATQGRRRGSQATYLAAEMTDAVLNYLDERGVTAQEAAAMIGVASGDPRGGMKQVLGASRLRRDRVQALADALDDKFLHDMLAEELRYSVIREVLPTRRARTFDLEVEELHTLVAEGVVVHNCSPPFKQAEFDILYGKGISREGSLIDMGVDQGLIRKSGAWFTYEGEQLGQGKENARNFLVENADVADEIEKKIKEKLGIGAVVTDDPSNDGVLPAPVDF
Nature of the experiment: Fluorescence Cell-Free Homogeneous Dose Retest to Identify Inhibitors of RecA-Intein Splicing Activity. [Related pubchem assays (depositor defined):AID2097, AID2223, AID489010, AID492950]. It counts as functional.

Another experiment deals with Genome polyprotein (dengue virus type 2, UniProt P29990). Nature of the experiment: flavivirus cap methylation enzyme inhibition – biochemical, confirmation dose response, primary screen (AID 588689). It counts as functional.
Genome polyprotein, sequence (P29990 2492-3391 limits assumed): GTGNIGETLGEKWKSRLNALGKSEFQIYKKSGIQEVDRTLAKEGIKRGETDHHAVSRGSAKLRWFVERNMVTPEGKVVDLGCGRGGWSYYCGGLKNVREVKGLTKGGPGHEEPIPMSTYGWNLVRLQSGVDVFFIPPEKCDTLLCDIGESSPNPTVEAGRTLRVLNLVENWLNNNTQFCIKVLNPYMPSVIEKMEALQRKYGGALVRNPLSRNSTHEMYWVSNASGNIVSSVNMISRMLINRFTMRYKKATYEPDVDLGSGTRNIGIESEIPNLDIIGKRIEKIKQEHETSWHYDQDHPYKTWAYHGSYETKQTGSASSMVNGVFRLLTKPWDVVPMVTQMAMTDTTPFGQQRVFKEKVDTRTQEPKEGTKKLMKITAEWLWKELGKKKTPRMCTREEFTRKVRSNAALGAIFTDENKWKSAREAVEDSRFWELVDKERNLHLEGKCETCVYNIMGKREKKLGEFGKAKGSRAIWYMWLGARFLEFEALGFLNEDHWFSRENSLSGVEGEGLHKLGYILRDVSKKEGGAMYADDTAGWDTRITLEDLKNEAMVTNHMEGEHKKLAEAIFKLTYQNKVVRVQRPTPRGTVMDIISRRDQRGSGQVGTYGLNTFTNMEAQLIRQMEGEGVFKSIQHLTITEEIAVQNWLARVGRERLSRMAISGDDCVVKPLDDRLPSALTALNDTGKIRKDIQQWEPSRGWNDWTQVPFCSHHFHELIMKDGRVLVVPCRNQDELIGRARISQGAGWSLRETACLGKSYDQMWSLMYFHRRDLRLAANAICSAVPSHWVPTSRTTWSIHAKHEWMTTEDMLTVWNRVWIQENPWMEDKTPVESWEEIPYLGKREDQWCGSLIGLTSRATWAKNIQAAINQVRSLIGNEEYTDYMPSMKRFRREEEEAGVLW
A short description of experiment [14]: Trypanosoma cruzi growth suppression in host cells – NIH3T3 host cells, beta-gal luminescence, confirmation (AID 2044).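 Also: intracellular parasites grown in NIH/3T3 mouse fibroblasts as host cells; luminescent beta-galactosidase reporter signal from transgenic T. cruzi replicating inside host cells; inhibitors lower the luminescence signal.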 It counts as functional, cell-based.
Experiment [15] can be described thus: NIH3T3 cell viability loss – ATP luminescence, mouse fibroblasts, counter-screen, dose response (AID 2010).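 Also: cells exposed to compound for about 90 hours before reading.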 It counts as functional, cell-based.
In experiment [16] the target is DNA dC->dU-editing enzyme APOBEC-3G (Homo sapiens, UniProt Q9HC16). Put plainly: Dose Response confirmation of small molecule APOBEC3G DNA Deaminase Inhibitors via a fluorescence-based single-stranded DNA deaminase assay. [Related pubchem assays (depositor defined):AID493012, AID493028]. It counts as functional.
DNA dC->dU-editing enzyme APOBEC-3G, sequence (Q9HC16 whole entry): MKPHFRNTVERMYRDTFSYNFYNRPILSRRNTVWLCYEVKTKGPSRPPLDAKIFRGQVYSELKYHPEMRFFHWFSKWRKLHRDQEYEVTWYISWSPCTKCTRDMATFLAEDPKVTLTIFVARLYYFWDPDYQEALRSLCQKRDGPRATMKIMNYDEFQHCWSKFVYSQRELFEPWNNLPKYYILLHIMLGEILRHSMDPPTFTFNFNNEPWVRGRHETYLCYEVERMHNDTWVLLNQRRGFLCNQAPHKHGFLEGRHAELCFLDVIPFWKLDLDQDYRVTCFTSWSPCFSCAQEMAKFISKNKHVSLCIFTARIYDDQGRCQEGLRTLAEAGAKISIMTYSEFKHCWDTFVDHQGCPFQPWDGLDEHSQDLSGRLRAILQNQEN

The source made the active and inactive calls. Bounds are passed on as bounds.

T1 sequence (P49327 whole entry): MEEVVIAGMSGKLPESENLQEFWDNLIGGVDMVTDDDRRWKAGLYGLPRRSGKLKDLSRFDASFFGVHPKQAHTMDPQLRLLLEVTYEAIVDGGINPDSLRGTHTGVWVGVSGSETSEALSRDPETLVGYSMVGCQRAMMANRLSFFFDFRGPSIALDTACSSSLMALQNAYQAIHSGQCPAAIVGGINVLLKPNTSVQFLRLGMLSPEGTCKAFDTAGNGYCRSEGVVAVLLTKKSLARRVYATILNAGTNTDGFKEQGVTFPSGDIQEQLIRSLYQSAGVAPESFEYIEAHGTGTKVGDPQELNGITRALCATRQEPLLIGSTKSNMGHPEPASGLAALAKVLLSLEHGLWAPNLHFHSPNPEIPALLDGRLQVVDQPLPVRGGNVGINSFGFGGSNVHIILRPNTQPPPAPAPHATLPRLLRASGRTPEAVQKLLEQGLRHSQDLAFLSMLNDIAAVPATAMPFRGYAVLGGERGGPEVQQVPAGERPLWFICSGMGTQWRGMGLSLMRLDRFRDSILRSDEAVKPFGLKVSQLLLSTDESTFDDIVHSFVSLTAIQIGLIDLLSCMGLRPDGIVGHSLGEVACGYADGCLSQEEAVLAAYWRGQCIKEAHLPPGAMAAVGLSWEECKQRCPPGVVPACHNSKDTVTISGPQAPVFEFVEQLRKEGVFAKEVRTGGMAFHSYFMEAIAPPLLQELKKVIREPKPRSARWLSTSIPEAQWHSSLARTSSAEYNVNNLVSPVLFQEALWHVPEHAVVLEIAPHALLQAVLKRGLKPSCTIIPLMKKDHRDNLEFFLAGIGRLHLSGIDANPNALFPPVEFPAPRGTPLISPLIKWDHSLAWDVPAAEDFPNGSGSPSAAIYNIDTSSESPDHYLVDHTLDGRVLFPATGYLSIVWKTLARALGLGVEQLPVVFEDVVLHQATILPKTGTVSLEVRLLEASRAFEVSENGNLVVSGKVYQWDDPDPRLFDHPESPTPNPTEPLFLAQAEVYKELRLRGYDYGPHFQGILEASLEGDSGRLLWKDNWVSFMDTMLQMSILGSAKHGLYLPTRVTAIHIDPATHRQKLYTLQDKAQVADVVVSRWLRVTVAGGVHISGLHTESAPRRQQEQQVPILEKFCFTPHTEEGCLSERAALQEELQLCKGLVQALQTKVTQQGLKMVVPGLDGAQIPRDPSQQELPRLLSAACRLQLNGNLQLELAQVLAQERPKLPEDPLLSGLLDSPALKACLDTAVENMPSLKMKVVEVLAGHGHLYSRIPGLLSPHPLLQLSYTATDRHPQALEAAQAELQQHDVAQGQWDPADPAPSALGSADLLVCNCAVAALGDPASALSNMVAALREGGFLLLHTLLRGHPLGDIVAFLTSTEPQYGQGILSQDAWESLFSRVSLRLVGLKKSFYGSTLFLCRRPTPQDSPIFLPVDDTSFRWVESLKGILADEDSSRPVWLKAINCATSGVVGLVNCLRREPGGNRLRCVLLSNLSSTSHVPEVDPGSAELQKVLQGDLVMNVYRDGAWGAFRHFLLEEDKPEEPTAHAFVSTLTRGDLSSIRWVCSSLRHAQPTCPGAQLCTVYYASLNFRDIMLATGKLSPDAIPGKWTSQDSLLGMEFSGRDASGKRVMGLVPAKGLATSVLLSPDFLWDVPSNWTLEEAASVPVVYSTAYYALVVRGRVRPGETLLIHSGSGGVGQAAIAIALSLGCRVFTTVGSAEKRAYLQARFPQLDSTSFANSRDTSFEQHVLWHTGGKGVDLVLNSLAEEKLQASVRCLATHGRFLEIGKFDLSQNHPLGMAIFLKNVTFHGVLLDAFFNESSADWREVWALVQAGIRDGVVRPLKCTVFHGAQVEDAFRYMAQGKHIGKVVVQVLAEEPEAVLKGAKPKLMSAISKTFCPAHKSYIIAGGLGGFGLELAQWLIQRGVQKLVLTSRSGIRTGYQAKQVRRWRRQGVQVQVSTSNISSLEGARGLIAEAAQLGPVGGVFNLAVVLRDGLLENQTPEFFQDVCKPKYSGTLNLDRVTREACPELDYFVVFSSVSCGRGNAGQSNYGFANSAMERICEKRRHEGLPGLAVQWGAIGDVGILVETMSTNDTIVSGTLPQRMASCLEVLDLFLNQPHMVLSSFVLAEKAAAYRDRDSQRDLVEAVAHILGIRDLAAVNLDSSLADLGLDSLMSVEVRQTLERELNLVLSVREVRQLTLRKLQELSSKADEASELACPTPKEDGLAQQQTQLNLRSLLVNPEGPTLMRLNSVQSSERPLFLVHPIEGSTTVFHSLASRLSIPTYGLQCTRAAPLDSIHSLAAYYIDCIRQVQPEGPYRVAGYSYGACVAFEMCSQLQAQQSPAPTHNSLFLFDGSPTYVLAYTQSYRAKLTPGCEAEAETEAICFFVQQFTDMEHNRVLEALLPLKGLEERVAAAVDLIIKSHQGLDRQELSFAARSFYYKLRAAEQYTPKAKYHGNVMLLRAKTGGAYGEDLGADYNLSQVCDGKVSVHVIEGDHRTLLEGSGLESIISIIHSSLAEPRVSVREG

What is called IC50 is the concentration needed to halve the response being measured. For `Cc1ccc(C(=O)O/N=C(\N)Cc2cccs2)cc1[N+](=O)[O-]`, the half-inhibitory concentration (IC50) on Fatty acid synthase [1] is 9.57 µM (active); on Fatty acid synthase [2], 8.33 µM (active).
One may read the AC50 as the concentration giving half of the maximal activity seen. Regarding `COc1ccc(S(=O)(=O)Nc2cccc3c2O[C@@H](CN(C)Cc2ccc(C(=O)Nc4ccccc4N)cc2)[C@H](C)CN([C@@H](C)CO)C3=O)cc1`, the AC50 in experiment [3] was 3.61 µM (active).
On the same count and under the same terms, the value for `C[C@H]1CN([C@@H](C)CO)C(=O)c2cc(NS(=O)(=O)c3ccc(F)cc3)ccc2O[C@@H]1CN(C)Cc1ccc(Cl)c(Cl)c1` was 4.6 µM (active).
On to `CN(C)C=O.O=C(O)c1ccccc1NS(=O)(=O)c1ccc(NN=Cc2ccc(F)cc2)c([N+](=O)[O-])c1`, for which the IC50 at Fatty acid synthase [1] is 7.9 µM (active); at Fatty acid synthase [2], 4.43 µM (active).
`O=C1C(Cl)=C(N2CCN(Cc3ccccc3)CC2)C(=O)N1c1ccc(Cl)nc1`: in experiment [4], the IC50 was > 50 µM (inconclusive).
A word on the CC50: it is the concentration giving 50% cytotoxicity. For `c1ccc2c(c1)Nc1ccncc1S2`, the CC50 in experiment [5] is 100 µM (active). Also, the IC50 in [6] is 269 µM (active).
In the case of `C[C@H](CO)N1C[C@H](C)[C@H](CN(C)CC2CC2)Oc2ccc(NC(=O)Nc3ccccc3)cc2CC1=O`, the AC50 in [7] is 3.81 µM (active); in experiment [8], 2.08 µM (active); in experiment [9] it was 3.39 µM (active); in experiment [10], 4.64 µM (active).
Consider `C[C@@H]1CN([C@H](C)CO)C(=O)Cc2cc(NC(=O)NC3CCCCC3)ccc2O[C@H]1CN(C)Cc1ccc(Oc2ccccc2)cc1`, for which the AC50 in experiment [3] is 3.58 µM (active).
Consider `CC1CCCN(CCOc2ccc3ccccc3c2Br)C1` (stereo unspecified), for which the cytotoxic concentration (CC50) in experiment [5] was 68.9 µM (active). For the same compound, the IC50 in experiment [6] is 142 µM (active).
As to `CCc1c(C(=O)NC2CCCc3ccccc32)[nH]c(C)c1C(C)=O` (stereo unspecified), the IC50 with Vero [11] is 9.95 µM (active). Besides, in the experiment with Vero [12], the CC50 was > 25 µM (active).
In the case of `C[C@@H]1CN([C@@H](C)CO)C(=O)c2cccc(NC(=O)c3nc4ccccc4s3)c2O[C@H]1CN(C)C(=O)NC1CCCCC1`, the AC50 in [7] was 0.846 µM (active); in experiment [8] it was 1.37 µM (active); in experiment [9], 1.08 µM (active); in experiment [10], 1.05 µM (active).
`C[C@H]1CN([C@@H](C)CO)C(=O)c2c(c3ccccc3n2C)-c2ccccc2CO[C@@H]1CN(C)C(=O)Nc1ccc(-c2ccccc2)cc1`: the AC50 was 0.787 µM (active) in experiment [7], 1.38 µM (active) in experiment [8], 0.507 µM (active) in experiment [9] and 0.532 µM (active) in experiment [10].
The EC50 is the concentration giving half of the maximal effect. Consider `O=C(O)CN1C(=O)/C(=C\c2cccc(OCc3ccc(Cl)cc3Cl)c2)SC1=S`, for which the AC50 in experiment [13] is 2.73 µM (active). Further, on Protein RecA, the EC50 was 11.1 µM (active). Moreover, the IC50 on Genome polyprotein was 36 µM (active).
As for `C[C@H](CO)N1C[C@H](C)[C@@H](CN(C)Cc2ccncc2)Oc2c(NC(=O)Nc3ccc(C(F)(F)F)cc3)cccc2C1=O`, the AC50 in [3] is 2.97 µM (active).
In the case of `C[C@@H]1CCCCO[C@H](CN(C)C(=O)C2CCCCC2)[C@@H](C)CN([C@H](C)CO)C(=O)c2cc(NC(=O)Nc3ccc(C(F)(F)F)cc3)ccc2O1`, in experiment [3], the AC50 is 6.88 µM (active).
Turning to `Cc1ccc2oc(=O)c3cnn(CC(=O)Nc4ccccc4N4CCN(C)CC4)c3c2c1`, the IC50 in the experiment on Vero [11] is 9.16 µM (active).
For `COc1ccc(-n2c(SCC(=O)C(C)(C)C)nc3c(sc(=S)n3-c3ccccc3)c2=O)c(OC)c1`, the EC50 in experiment [14] is 0.714 µM (active); in experiment [15], > 60 µM (not active). In experiment [16], the half-maximal inhibitory concentration (IC50) is 66.5 µM (active).
On to `O=C(CN(CC(=O)N1CCOCC1)S(=O)(=O)c1ccc(Br)s1)N1CCOCC1`, for which, in experiment [16], the 50% inhibitory concentration (IC50) is 74.3 µM (active).
Consider `O=C(COC(=O)c1cc([N+](=O)[O-])ccc1Cl)NCCc1ccccc1`, for which the IC50 was 3.93 µM (active) at Fatty acid synthase [1] and 5.26 µM (active) at Fatty acid synthase [2].
Consider `O=C(CSc1ncnc2c1cnn2-c1ccccc1)NC1CCCC1`, for which the IC50 was 5.94 µM (active) on Fatty acid synthase [1] and 5.67 µM (active) at Fatty acid synthase [2].
As to `Cc1oc2c(c1C(=O)Nc1cccc(C(=O)O)c1)CCCC2`, in experiment [4], the IC50 is recorded as > 100 µM (not active).

The values above are taken from ChEMBL document CHEMBL1201862, “PubChem BioAssay data set” (2004).
